Experimental data reported in patent US20260285850A1, “SUBSTITUTED OXAZOLIDINONES AND IMIDAZOLINONES AS HERBICIDES” (FMC CORPORATION, priority 2023, published 2026).

Key:
Format in all cases: in vivo
[1] = system: barnyardgrass (Echinochloa crus-galli); assay: Test A preemergence soil spray, visual injury rating 0-100; conditions: 10 days
In short: (§1)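 Directed preemergence spray onto seeded soil or postemergence spray onto 2-10 cm plants (loam plus sand); compound carried in surfactant-containing non-phytotoxic solvent. Injury rated by eye after 10 d greenhouse growth; 0 = no effect, 100 = complete control.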

[2] = system: blackgrass (Alopecurus myosuroides); assay: as above; conditions: 10 days
In short: as §1

corn (Zea mays) [3] = assay: as above; conditions: 10 days
In short: as §1

[4] = system: green foxtail (Setaria viridis); assay: as above; conditions: 10 days
In short: as §1

kochia (Bassia scoparia) [5] = assay: as above; conditions: 10 days
In short: as §1

[6] = system: oat, wild (wild oat, Avena fatua); assay: as above; conditions: 10 days
In short: as §1

[7] = system: palmer (palmer amaranth, palmer pigweed, Amaranthus palmeri); assay: as above; conditions: 10 days
In short: as §1

[8] = system: ragweed (common ragweed, Ambrosia artemisiifolia); assay: as above; conditions: 10 days
In short: as §1

[9] = system: ryegrass, Italian (italian ryegrass, Lolium multiflorum); assay: as above; conditions: 10 days
In short: as §1

soybean (Glycine max) [10] = assay: as above; conditions: 10 days
In short: as §1

[11] = system: wheat (Triticum aestivum); assay: as above; conditions: 10 days
In short: as §1

[12] = system: barnyardgrass (Echinochloa crus-galli); assay: Test A postemergence application, visual injury rating 0-100
In short: as §1

[13] = system: blackgrass (Alopecurus myosuroides); assay: as above
In short: as §1

corn (Zea mays) [14] = assay: as above
In short: as §1

[15] = system: galium (catchweed bedstraw, Galium aparine); assay: as above
In short: as §1

[16] = system: green foxtail (Setaria viridis); assay: as above
In short: as §1

[17] = system: horseweed (Erigeron canadensis); assay: as above
In short: as §1

kochia (Bassia scoparia) [18] = assay: as above
In short: as §1

[19] = system: oat, wild (wild oat, Avena fatua); assay: as above
In short: as §1

[20] = system: palmer (palmer amaranth, palmer pigweed, Amaranthus palmeri); assay: as above
In short: as §1

[21] = system: ragweed (common ragweed, Ambrosia artemisiifolia); assay: as above
In short: as §1

[22] = system: ryegrass, Italian (italian ryegrass, Lolium multiflorum); assay: as above
In short: as §1

soybean (Glycine max) [23] = assay: as above
In short: as §1

[24] = system: wheat (Triticum aestivum); assay: as above
In short: as §1

[25] = system: barnyardgrass (Echinochloa crusgalli); assay: Test B flooded paddy test, visual plant response rating 0-100; conditions: 250 g ai/ha, Flood, applied to paddy water, evaluated after 13 days
In short: (§2)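 2-leaf plants; flood 3 cm over soil; compound dosed into paddy water; depth kept constant; greenhouse 13 d; visual scoring vs controls. Dash = no result.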

[26] = system: ducksalad (Heteranthera limosa); assay: as above; conditions: 250 g ai/ha, Flood, applied to paddy water, evaluated after 13 days
In short: as §2

rice (Oryza sativa) = assay: as above; conditions: 250 g ai/ha, Flood, applied to paddy water, evaluated after 13 days
In short: as §2

[27] = system: sedge, umbrella (small-flower umbrella sedge, Cyperus difformis); assay: as above; conditions: 250 g ai/ha, Flood, applied to paddy water, evaluated after 13 days
In short: as §2

[28] = 62 g ai/ha, 0 = no effect, 100 = complete control
[29] = 62 g ai/ha, postemergence, 10 days, 0 = no effect, 100 = complete control
[30] = Postemergence, 16 g ai/ha, greenhouse 10 days, 0 no effect, 100 complete control

COC(=O)C1C=CC(NC(=O)C2(C)CN(c3cc(F)cc(F)c3)C(=O)O2)C1 (stereo not shown) [Compound 92]
Barnyardgrass plant response rating ([1]; 16 g ai/ha, 0 to 100 scale): 0
Barnyardgrass plant response rating (0-100) [1, 28]: 0
Blackgrass plant response rating ([2]; 16 g ai/ha, 0 to 100 scale): 0
Blackgrass plant response rating (0-100) [2, 28]: 0
Corn plant response rating (corn (Zea mays) [3]; 16 g ai/ha, 0 to 100 scale): 0
Corn plant response rating (0-100) (corn (Zea mays) [3]; [28]): 0
Foxtail, Green plant response rating ([4]; 16 g ai/ha, 0 to 100 scale): 0
Foxtail, Green plant response rating (0-100) [4, 28]: 0
Kochia plant response rating (kochia (Bassia scoparia) [5]; 16 g ai/ha, 0 to 100 scale): 0
Kochia plant response rating (0-100) (kochia (Bassia scoparia) [5]; [28]): 0
Oat, Wild plant response rating ([6]; 16 g ai/ha, 0 to 100 scale): 0
Oat, Wild plant response rating (0-100) [6, 28]: 0
Pigweed, Palmer plant response rating ([7]; 16 g ai/ha, 0 to 100 scale): 0
Pigweed, Palmer plant response rating (0-100) [7, 28]: 70
Ragweed plant response rating ([8]; 16 g ai/ha, 0 to 100 scale): 0
Ragweed plant response rating (0-100) [8, 28]: 0
Ryegrass, Italian plant response rating ([9]; 16 g ai/ha, 0 to 100 scale): 0
Ryegrass, Italian plant response rating (0-100) [9, 28]: 0
Soybean plant response rating (soybean (Glycine max) [10]; 16 g ai/ha, 0 to 100 scale): 0
Soybean plant response rating (0-100) (soybean (Glycine max) [10]; [28]): 0
Wheat plant response rating ([11]; 16 g ai/ha, 0 to 100 scale): 0
Wheat plant response rating (0-100) [11, 28]: 0
Barnyardgrass plant response rating (0-100) [12, 29]: 0
Barnyardgrass plant response rating (0 to 100 scale) [12, 30]: 0
Blackgrass plant response rating (0-100) [13, 29]: 0
Blackgrass plant response rating (0 to 100 scale) [13, 30]: 0
Corn plant response rating (0-100) (corn (Zea mays) [14]; [29]): 0
Corn plant response rating (0 to 100 scale) (corn (Zea mays) [14]; [30]): 0
Galium plant response rating (0-100) [15, 29]: 0
Galium plant response rating (0 to 100 scale) [15, 30]: 0
Foxtail, Green plant response rating (0-100) [16, 29]: 0
Foxtail, Green plant response rating (0 to 100 scale) [16, 30]: 0
Horseweed plant response rating (0-100) [17, 29]: 0
Horseweed plant response rating (0 to 100 scale) [17, 30]: 0
Kochia plant response rating (0-100) (kochia (Bassia scoparia) [18]; [29]): 0
Kochia plant response rating (0 to 100 scale) (kochia (Bassia scoparia) [18]; [30]): 0
Oat, Wild plant response rating (0-100) [19, 29]: 0
Oat, Wild plant response rating (0 to 100 scale) [19, 30]: 0
Pigweed, Palmer plant response rating (0-100) [20, 29]: 0
Pigweed, Palmer plant response rating (0 to 100 scale) [20, 30]: 0
Ragweed plant response rating (0-100) [21, 29]: 20
Ragweed plant response rating (0 to 100 scale) [21, 30]: 0
Ryegrass, Italian plant response rating (0-100) [22, 29]: 0
Ryegrass, Italian plant response rating (0 to 100 scale) [22, 30]: 0
Soybean plant response rating (0-100) (soybean (Glycine max) [23]; [29]): 0
Soybean plant response rating (0 to 100 scale) (soybean (Glycine max) [23]; [30]): 0
Wheat plant response rating (0-100) [24, 29]: 0
Wheat plant response rating (0 to 100 scale) [24, 30]: 0
Plant response rating, Barnyardgrass (0 to 100 scale, 0 is no effect and 100 is complete control) [25]: 0
Plant response rating, Ducksalad (0 to 100 scale, 0 is no effect and 100 is complete control) [26]: 0
Plant response rating, Rice (0 to 100 scale, 0 is no effect and 100 is complete control) (rice (Oryza sativa)): 0
Plant response rating, Sedge, Umbrella (0 to 100 scale, 0 is no effect and 100 is complete control) [27]: 0
